Experimental data taken from patent publication US20260206796A1, “FEED COMPOSITIONS” (Solugen, Inc., priority 2023, published 2026).
Structures can show the parent of a compound that is named as a salt.

Assays:
Format in all cases: in vivo
[1] = system: tilapia; test: 2 month tilapia growth trial on soybean meal-based diets (growth, feed conversion, phosphorus discharge); details: additive 0.5 wt. % in diet; for Fecal phosphorus content compared to control diet: feces after 2 months on diets; for Phosphorus discharge (via urine) in the water compared to soybean based control diet: new clean water sampled after 4 hours
Description: The efficacy of an FIA used as fish feed was investigated. The aim of this study was to assess the efficacy of (i) a feed comprising an FIA of the type disclosed herein (e.g., gluconate) on the growth, phosphorus discharge, biochemical composition and histopathology in tilapia when compared to (ii) a soybean meal-based diet that would have a similar formulation as commercial feeds or (iii) a soybean meal-based diet that includes an FIA of the type disclosed herein or sodium citrate, respectively. Sodium citrate was chosen because this is a competitive chelator and has in the past shown to improve phosphorus utilization/reduce phosphorus discharge in various aquatic animals.
To compare the efficacy of an FIA of the type disclosed herein, a total of 4 isonitrogenous and isolipidic diets were formulated to satisfy the nutritional requirements of tilapia. The crude protein and crude lipid content of the diets were all 32 wt. % and 8 wt. %, respectively. However, the percentages of proteins and supplements were altered to satisfy the aims of this study. Soybean meal was used across all diets. Diet 1 was the control with only soybean meal (cellulose at 0.5 wt. %).
The FIA appeared like packaging peanuts, and thus needed to be ground into a fine powder for the product to be adequately mixed in the diet. All diets were made using a pelleter and the pellets were dried in an oven at 60° C. and stored at −20° C. until use.
A total of 90 all male tilapia were equally distributed among 9 oval polyethylene tanks that ran on a recirculating system. Thus, all the fish shared the same water throughout the 2 month growth trial. After the fish were stocked, of approximately equal size, the tanks were randomly allocated their treatments in triplicate. For the first week, the tilapia were fed the control diet to acclimate them to the experimental conditions and then after a week were hand fed twice daily to apparent satiation on their respective experimental diets.
Throughout the study, excess waste was manually siphoned out of the system and water exchanges were provided weekly. Feed intake was recorded to later calculate the feed conversion ratio. Fish feces were collected, dried and measured for the phosphorus levels after 2 months.
(§1) After 2 months, all the fish were weighed to assess weight gain. Two fish/tank were sampled for liver and intestinal histopathology and the muscle sent out for biochemical analysis. The remaining fish were placed in new clean water and the water was sampled at 4 hours and measured for phosphorus levels mostly derived from urine.

[2] = system: freshwater shrimp; test: 10 week shrimp feeding trial with feed additives (phosphate level in tank water, survival); details: for Shrimp survival rate: over 10 weeks of feeding trial, 1.2% additive in diet
Description: To validate if gluconates can be used as an acidulant additives in fish feed to increase shrimp's digestion and reduce phosphate discharge to aquaculture farm water, freshwater shrimp were fed with 1) regular shrimp diet as a control, 2) the same shrimp diet with 1.2% of an FIA, particularly gluconate, as disclosed herein and 3) the shrimp diet with 1.2% sodium citrate as an additive.
Phosphate reduction was equivalently high level to slightly better than citric acid up to 12.5 wt. %. This functionality of reducing phosphate level in discharged water from aquaculture farms is beneficial with respect to environmental regulations as aquaculture farmers are dealing with and the restrictions on the allowed phosphate level in the discharged water waste from aquaculture farms.

[3] = system: tilapia; test: Liver and intestinal histopathology of tilapia after 2 months on the diets; details: for Intestinal histopathology / Liver histopathology / hepatic toxicity: additive 0.5 wt. % in diet, hematoxylin and eosin staining
Description: as §1

Row | SMILES | Fecal phosphorus content compared to control diet [1] | Phosphorus discharge (via urine) in the water compared to soybean based control diet [1] | Phosphate reduction compared to citric acid ([2]; 1.2% additive in shrimp diet, vs citric acid additive diet) | Phosphate reduction in tank water compared to control (regular shrimp diet) ([2]; 1.2% additive in shrimp diet, vs control diet) | Shrimp survival rate [2] [%] | Overall safety for consumption at the level tested ([3]; 0.5 wt. % in diet) | Intestinal histopathology [3] | Liver histopathology / hepatic toxicity ([3]; listed as FIA) | Liver histopathology / hepatic toxicity ([3]; listed as sugar oxidation product) | Liver histopathology / hepatic toxicity [3] | Liver histopathology / hepatic toxicity ([3]; listed as Sodium citrate) | Intestinal histopathology ([3]; listed as citrate)
1 | O=C(O)[C@H](O)[C@@H](O)[C@H](O)[C@H](O)CO [gluconate] | significantly less | significantly less | up to 12.5 wt. % | up to 19 wt. % | 75 | safe for tilapia consumption | no such adverse effects | no hepatic toxicity | normal sinusoid organization with clear central veins and intact and well dispersed pancreatic islets |  |  | 
2 | O=C(O)CC(O)(CC(=O)O)C(=O)O [sodium citrate, reference compound] | significantly less | significantly less |  |  | 58 |  | inflammation of the intestinal villi and goblet cell hyperplasia |  |  | varying degrees of hepatic lesions | hepatic toxicity based on both mild effects (localized inflammation) to severe (extensive necrosis, vacuolization and hemorrhaging) | severe inflammation in goblet cell (gc) and the lamina propria (lp)
